Series [1] in a line: Chromatographic hydrophobicity index CHI logD determination (UltraCore SuperC18 column). Type of series: physicochemical. The source says:
Due to this observation and to better characterise elution conditions for method development, it was decided to determine the chromatographic hydrophobicity index CHI logD of CPL409116 and its impurities by the methodology described by Valko et al.. Chromatographic hydrophobicity index CHI logD has been originally used for high-throughput physicochemical property profiling for rational drug design, where determined values strongly correlate to lipophilicity (logP and/or logD) of molecules.
On a basis of determining lipophilicity described by CHI logD at pH 2.6, 7.4 and 10.5 on ACE Ultracore SuperC18 column more valuable data were obtained in a contest of chromatography interactions molecules with stationary phase extended with their acid-base properties (Table 1). Particularly, strong pH dependence on retention factors has been observed for JAK ImpC and also for JAK07, JAK08, and JAK09. Greater differences and a wider range of CHI logD values, calculated on a base of peaks retention times of compounds, in the lower pH range than in the pH 7.4–10.5 range have been observed. The use of mobile phases with a lower pH would allow obtaining higher chromatographic resolutions and higher selectivity of the analytical method.
For the CHI logD determination, separate solutions of all the tested sample were prepared at a concentration of 1 mM in DMSO. Reference mix solutions have a concentration of 1 mM in DMSO.
The CHI logD for JAK01 and its impurities was determined on an UltraCore 2.5 SuperC18 (2.1 × 50 mm, 2.5 µm, ACE) column with eluent A consisting of formic acid (10 mM, pH 2.6), and ammonium acetate (50 mM) buffers with different concentrations of additives were used to prepare buffer solutions of 7.4, and 10.5, and eluent B consisted ACN [58].

The nature of series [2]: Solubility in aqueous solutions. Type of series: physicochemical.

Read-outs that look alike come from different tables or passages of the source. Bounds are passed on as bounds.

The text below walks through data of publication PMC9505031, “Implementation of QbD Approach to the Development of Chromatographic Methods for the Determination of Complete Impurity Profile of Substance on the Preclinical and Clinical Step of Drug Discovery Studies” (International Journal of Molecular Sciences, 2022).

With `COc1cccc(-c2cc3ncc(C(N)=O)c(N[C@@H]4CCN(c5ccc(C#N)nn5)CC4(C)C)n3n2)n1` [CPL409116], the chromatographic logD came to 3.51 in series [1] (pH 2.6, 10 mM formic acid/ACN, read-out: CHILogD pH 2.6); 3.09 in series [1] (pH 7.4, 50 mM ammonium acetate/ACN, read-out: CHILogD pH 7.4); 3.05 in series [1] (pH 10.5, 50 mM ammonium acetate/ACN, read-out: CHILogD pH 10.5). For the same molecule, the “Solubility in aqueous solutions” value in series [2] (aqueous solutions) was “practically insoluble”. Further, the solubility in series [2] (pH 7.4, aqueous buffer, phosphate buffer with a pH of 7.4) is < 0.1 µg/mL.
